Assay results: patent US20090179638A1, “ASSAY FOR IDENTIFYING INHIBITORS OF NEURONAL APOPTOTIC PATHWAYS” (AEGERA THERAPEUTICS INC., priority 2006, published 2009)
Entries after “also recorded” stand apart in the source; their conditions may differ.

Columns and labels:
[1] = tested on: SCG neurons; assay: NGF-withdrawal induced cell death of SCG neurons (MTS assay); format: cell-based, rat; settings: SCG neurons withdrawn from NGF, 48 hours
Protocol: FIG. 1 is a graph showing that compound 1 inhibits NGF-withdrawal induced cell death. Cultures of rat SCG neurons (see Materials and Methods) initially maintained in 10 ng/ml of NGF were withdrawn from NGF and maintained in media containing compound 1 at the concentrations indicated for 48 hours. Cellular viability was assayed using an MTS assay. (*=P<0.01 relative to no compound 1). Experiments were performed three times with identical results.
Survival of neonatal primary sympathetic neurons is dependent on trophic support provided by Neuronal Growth Factor (NGF) (reviewed in (Young et al., 2004)).
Cell culture, infection, transfection and immunoblotting. Sympathetic neurons were maintained and deprived of NGF as previously described (Bamji et al., 1998; Ma et al., 1992). PC12^rtTA cells were maintained and infected as previously described (Majdan et al., 1997; Salehi et al., 2002); for NRAGE, […] doxycycline was added to all plates at time of infection. Wildtype and HSF1 nullizygous immortalized mouse embryonic fibroblasts (MEFs) were maintained in DMEM containing 10% fetal calf serum, 1 μM β-mercaptoethanol, 1% non-essential amino acids, 1% L-glutamine, 1% antimycotic solution and 1% sodium pyruvate (all from GibcoBRL). Sympathetic neuron survival was assessed using the MTS assay according to the manufacturer's instructions (Promega). Analysis of PC12 cell death was determined using a lactate dehydrogenase (LDH) assay (Roche) as per the manufacturer's instructions. Transfections using plasmids or RNAi were performed using Lipofectamine 2000. Immunoblotting was performed as previously described (Majdan et al., 1997; Salehi et al., 2002).

[2] = tested on: HSP70 promoter; assay: HSP70 transcriptional reporter constructs in PC12 cells; format: cell-based; settings: transfected PC12 cells
[3] = tested on: JNK; assay: Endogenous phosphorylation of GST-c-Jun in PC12rtTA cells; format: cell-based; settings: for expression of the GST-c-Jun fusion construct: PC12rtTA cells
Protocol: FIGS. 7A, 7B and 7C are photographs of Western blots which illustrate that compound 1 analogues inhibit JNK activation and induce expression of HSP70. A: PC12^rtTA cells were transfected with RNAi directed against HSP70 or with control RNA and then 24 hours later were infected with 5 MOI of AdNRG or 50 MOI of the control virus AdLacZ. At time of infection, the cells were treated with 40 μM compound 2 or with a vehicle control, as indicated. After 30 hours, cells were lysed, normalized for protein levels, and analyzed for phosphorylated Jun, HSP70, HSP25 NRAGE and actin levels. B: PC12^rtTA cells were transfected with an expression construct driving GST-Jun. After 24 hours, cells were infected with 5 MOI of AdNRG or 50 MOI of the control virus AdLacZ or were left uninfected. After a further 24 hours, uninfected cells were left untreated or were exposed to 10 ng/ml TNF or 300 mM sorbitol for 15 minutes. Cells were then lysed, normalized for protein levels, and GST-jun was recovered by glutathione pullout and analyzed for phosphorylation using a antibody directed against c-Jun pSer63 by immunoblotting. Equivalent pullout of GST-Jun was confirmed by immunoblotting with an antibody directed against c-Jun and GST. C: PC12^rtTA cells were co-transfected with an expression construct driving GST-Jun and with RNAi directed against HSP70 or with control RNA, as indicated. After 24 hours, cells were infected with 5 MOI of AdNRG or 50 MOI of the control virus AdLacZ. At time of infection, the cells were treated with 40 μM compound 2 or with a vehicle control, as indicated. After 30 hours, cells were lysed, normalized for protein levels, and GST-jun was recovered by glutathione pullout and analyzed for phosphorylation using an antibody directed against c-Jun pSer63 by immunoblotting. Equivalent pullout of GST-Jun was confirmed by immunoblotting with an antibody directed against total Jun. Lysates levels of HSP70, HSP25, HSP40, NRAGE and actin was determined by immunoblot. […]
A causal link between HSP70 induction and JNK suppression, circumventing the problem of low-transfection efficiency of the PC12rtTA cells, was developed to assess JNK pathway activation specifically in the RNAi transfected subpopulation of PC12rtTA cells. […] We anticipated that the GST-c-Jun fusion protein would be readily recoverable from lysates and its phosphostatus would provide a sensitive read-out that reflects the level of JNK pathway activation in the subpopulation of cells which were transfected. […] GST-c-Jun was then recovered from lysates and its phosphostatus determined by immunoblotting. […] Thus, the phosphostatus of the GST-jun fusion protein provided a sensitive read-out that reflects the level of JNK pathway activation in transfected cells. […]

NS(=O)(=O)c1nn2cc(-c3ccccc3)nc2s1 [Compound 1]
protection from NGF-withdrawal induced cell death [1]: protected; also recorded: inhibits | activity of HSP70 transcriptional reporter constructs [2]: stimulated | expression of the GST-c-Jun fusion construct [3]: significantly increased

NS(=O)(=O)c1nn2cc(-c3ccc(N4CCOCC4)cc3)nc2s1 [Compound 2]
protection from NGF-withdrawal induced cell death [1]: protected | ability to block GST-jun phosphorylation ([3]; 40 μM, RNAi directed against HSP70): almost completely lost | AdNRG-induced phosphorylation of GST-c-Jun ([3]; 40 μM, control siRNA): strongly inhibited | expression of the GST-c-Jun fusion construct [3]: without altering
